Structure (SMILES)	melting point
CNCc1ccc(N/C(=C2\C(=O)Nc3ccc([N+](=O)[O-])cc32)c2ccccc2)cc1.Cl	351 °C
CC(C)(C)OC(=O)N(Cc1ccccc1)Cc1ccc(N/C(=C2\C(=O)Nc3ccc([N+](=O)[O-])cc32)c2ccccc2)cc1 [Example 236, (Z)-3-{1-[4-(N-benzyl-N-tert.butoxycarbonyl-aminomethyl)-phenylamino]-1-phenyl-methylidene}-5-nitro-2-indolinone]	202 to 203 °C (dec.)
CC(=O)Nc1cccc(N/C(=C2\C(=O)Nc3ccccc32)c2ccccc2)c1 [Example 32, (Z)-3-[1-(3-acetylamino-phenylamino)-1-phenyl-methylidene]-2-indolinone]	285 to 288 °C
CN(C)CCN(C=O)c1ccc(N/C(=C2\C(=O)Nc3ccc([N+](=O)[O-])cc32)c2ccccc2)cc1 [Example 327, (Z)-3-{1-[4-(N-(2-dimethylaminoethyl)-N-formyl-amino)-phenylamino]-1-phenyl-methylidene}-5-nitro-2-indolinone]	215 to 218 °C
CN(CC(=O)O)C(=O)c1ccc(N/C(=C2\C(=O)Nc3ccccc32)c2ccccc2)cc1 [Example 395, (Z)-3-{1-[4-(N-carboxymethyl-N-methyl-aminocarbonyl)-phenylamino]-1-phenyl-methylidene}-2-indolinone]	168 to 170 °C
COCC(=O)NCc1ccc(N/C(=C2\C(=O)Nc3ccccc32)c2ccccc2)cc1 [Example 76, (Z)-3-[1-(4-methoxymethylcarbonylaminomethyl-phenylamino)-1-phenyl-methylidene]-2-indolinone]	178 to 180 °C
O=C1Nc2ccc([N+](=O)[O-])cc2/C1=C(/Nc1ccc(CCN2CCCCCC2)cc1)c1ccccc1 [Example 265, (Z)-3-{1-[4-(2-hexamethyleneimino-ethyl)-phenylamino]-1-phenyl-methylidene}-5-nitro-2-indolinone]	217 to 222 °C
CN(C(=O)CN1CCCC1)c1ccc(N/C(=C2\C(=O)Nc3ccccc32)c2ccccc2)cc1 [Example 369, (Z)-3-{1-[4-(N-(pyrrolidin-1-ylmethylcarbonyl)-N-methyl-amino)-phenylamino]-1-phenyl-methylidene}-2-indolinone]	253 to 255 °C
COc1ccc(/C(Nc2ccc(CN(C)C)cc2)=C2/C(=O)Nc3ccc([N+](=O)[O-])cc32)cc1 [Example 216, (Z)-3-[1-(4-dimethylaminomethyl-phenylamino)-1-(4-methoxyphenyl)-methylidene]-5-nitro-2-indolinone]	259 to 262 °C
CC(C)(C)OC(=O)NCc1ccc(N/C(=C2\C(=O)Nc3ccc([N+](=O)[O-])cc32)c2ccccc2)cc1 [Example 113, (Z)-3-[1-(4-tert.butoxycarbonylaminomethyl-phenylamino)-1-phenyl-methylidene]-5-nitro-2-indolinone]	234 to 236 °C (dec.)
CCCS(=O)(=O)N(CCN(C)C)c1ccc(N/C(=C2\C(=O)Nc3ccc([N+](=O)[O-])cc32)c2ccccc2)cc1 [Example 310, (Z)-3-{1-[4-(N-(2-dimethylaminoethyl)-N-propylsulphonyl-amino)-phenylamino]-1-phenyl-methylidene}-5-nitro-2-indolinone]	212 °C
CCOC(=O)CN(c1ccc(N/C(=C2\C(=O)Nc3ccc([N+](=O)[O-])cc32)c2ccccc2)cc1)S(C)(=O)=O [Example 198, (Z)-3-{-[4-(N-ethoxycarbonylmethyl-N-methylsulphonyl-amino)-phenylamino]-1-phenyl-methylidene}-5-nitro-2-indolinone]	236 to 238 °C
CC(C)(C)OC(=O)N1CCN(Cc2ccc(N/C(=C3\C(=O)Nc4ccc([N+](=O)[O-])cc43)c3ccccc3)cc2)CC1 [Example 244, (Z)-3-{1-[4-(4-tert.butoxycarbonyl-piperazin-1-ylmethyl)-phenylamino]-1-phenyl-methylidene}-5-nitro-2-indolinone]	236 to 237 °C (dec.)
COC(=O)CNC(=O)c1ccc(/C(Nc2ccc(CN3CCCCC3)cc2)=C2/C(=O)Nc3ccc([N+](=O)[O-])cc32)cc1 [Example 446, (Z)-3-[1-(4-piperidinomethyl-phenylamino)-1-(4-methoxycarbonylmethylaminocarbonyl-phenyl)-methylidene]-5-nitro-2-indolinone]	230 to 235 °C
CCCC(=O)N(CCN1CCOCC1)c1ccc(N/C(=C2\C(=O)Nc3ccccc32)c2ccccc2)cc1 [Example 351, (Z)-3-{1-[4-(N-(2-morpholinoethyl)-N-propylcarbonyl-amino)-phenylamino]-1-phenyl-methylidene}-2-indolinone]	219 °C

Now from value to compound:

melting point	Structure (SMILES)
160 to 162 °C	CCCN(CCC)Cc1ccc(N/C(=C2\C(=O)Nc3ccc([N+](=O)[O-])cc32)c2ccccc2)cc1 [Example 161, (Z)-3-[1-(4-Dipropylaminomethyl-phenylamino)-1-phenyl-methylidene]-5-nitro-2-indolinone]
245 °C	O=C1Nc2ccc([N+](=O)[O-])cc2/C1=C(/Nc1ccc(CNC2CCCCC2)cc1)c1ccccc1 [Example 278, (Z)-3-{1-[4-(cyclohexylaminomethyl)-phenylamino]-1-phenyl-methylidene}-5-nitro-2-indolinone]
200 to 203 °C	CN(C)CCN(C)S(=O)(=O)c1ccc(N/C(=C2\C(=O)Nc3ccccc32)c2ccccc2)cc1 [Example 400, (Z)-3-{1-[4-(N-(2-dimethylaminoethyl)-N-methyl-aminosulphonyl)-phenylamino]-1-phenyl-methylidene}-2-indolinone]
212 to 214 °C	O=C1Nc2ccccc2/C1=C(/Nc1ccc(C(=O)N2CCCCC2)cc1)c1ccccc1 [Example 387, (Z)-3-{1-[4-(piperidinocarbonyl)-phenylamino]-1-phenyl-methylidene}-2-indolinone]
355 to 356 °C (dec.)	O=CNc1ccc(N/C(=C2\C(=O)Nc3ccc([N+](=O)[O-])cc32)c2ccccc2)cc1 [Example 92, (Z)-3-[1-(4-formylamino-phenylamino)-1-phenyl-methylidene]-5-nitro-2-indolinone]
267 to 268 °C	Nc1cccc(N/C(=C2\C(=O)Nc3ccccc32)c2ccccc2)c1 [Example 69, (Z)-3-[1-(3-aminophenylamino)-1-phenyl-methylidene]-2-indolinone]
246 to 248 °C	CN(C(=O)CN1CCNCC1)c1ccc(N/C(=C2\C(=O)Nc3ccc([N+](=O)[O-])cc32)c2ccccc2)cc1.Cl.Cl
236 to 238 °C	O=C1Nc2ccc([N+](=O)[O-])cc2/C1=C(/Nc1ccc(CCNCCO)cc1)c1ccccc1 [Example 256, (Z)-3-{1-[4-(2-(2-hydroxyethylamino)-ethyl)-phenylamino]-1-phenyl-methylidene}-5-nitro-2-indolinone]
252 °C	O=C1Nc2ccc([N+](=O)[O-])cc2/C1=C(/Nc1ccc(CN2CCC(Cc3ccccc3)CC2)cc1)c1ccccc1 [Example 172, (Z)-3-{1-[4-(4-phenylmethyl-piperidinomethyl)-phenylamino]-1-phenyl-methylidene}-5-nitro-2-indolinone]
263 to 265 °C	CNC(=O)C1CCN(Cc2ccc(N/C(=C3\C(=O)Nc4ccc([N+](=O)[O-])cc43)c3ccccc3)cc2)CC1 [Example 248, (Z)-3-{1-[4-(4-methylaminocarbonyl-piperidinomethyl)-phenylamino]-1-phenyl-methylidene}-5-nitro-2-indolinone]
238 to 240 °C	O=C(O)COc1ccc(N/C(=C2\C(=O)Nc3ccccc32)c2ccccc2)cc1 [Example 290, (Z)-3-{1-[4-(carboxymethyloxy)-phenylamino]-1-phenyl-methylidene}-2-indolinone]
265 to 267 °C	O=C(CN1CCOCC1)Nc1ccc(N/C(=C2\C(=O)Nc3ccc([N+](=O)[O-])cc32)c2ccccc2)cc1 [Example 96, (Z)-3-[1-(4-morpholinomethylcarbonylamino-phenylamino)-1-phenyl-methylidene]-5-nitro-2-indolinone]
255 to 258 °C	CN(C)C(=O)CN(c1ccc(N/C(=C2\C(=O)Nc3ccccc32)c2ccccc2)cc1)S(=O)(=O)c1ccccc1 [Example 205, (Z)-3-{1-[4-(N-dimethylaminocarbonylmethyl-N-phenylsulphonyl-amino)-phenylamino]-1-phenyl-methylidene}-2-indolinone]
246 to 247 °C	CN(C(=O)CN1CCCC1)c1ccc(N/C(=C2\C(=O)Nc3ccc([N+](=O)[O-])cc32)c2ccccc2)cc1 [Example 364, (Z)-3-{1-[4-(N-(pyrrolidin-1-ylmethylcarbonyl)-N-methyl-amino)-phenylamino]-1-phenyl-methylidene}-5-nitro-2-indolinone]
245 °C	CCS(=O)(=O)N(CCN(C)C)c1ccc(N/C(=C2\C(=O)Nc3ccccc32)c2ccccc2)cc1 [Example 307, (Z)-3-{1-[4-(N-(2-dimethylaminoethyl)-N-ethylsulphonyl-amino)-phenylamino]-1-phenyl-methylidene}-2-indolinone]
215 °C	CC(=O)NCc1ccc(/C(Nc2cccc(N(CC(N)=O)S(C)(=O)=O)c2)=C2/C(=O)Nc3ccccc32)cc1 [Example 417, (Z)-3-{1-[3-(N-aminocarbonylmethyl-N-methylsulphonyl-amino)-phenylamino]-1-(4-acetylaminomethyl-phenyl)-methylidene}-2-indolinone]
196 to 198 °C	O=C1Nc2ccc([N+](=O)[O-])cc2/C1=C(/Nc1ccc(CNCCO)cc1)c1ccccc1 [Example 239, (Z)-3-{1-[4-(2-hydroxy-ethylaminomethyl)-phenylamino]-1-phenyl-methylidene}-5-nitro-2-indolinone]
183 °C	CCCCNCc1ccc(N/C(=C2\C(=O)Nc3ccc([N+](=O)[O-])cc32)c2ccccc2)cc1 [Example 166, (Z)-3-[1-(4-butylaminomethyl-phenylamino)-1-phenyl-methylidene]-5-nitro-2-indolinone]
258 to 260 °C	CN(C)CCOc1ccc(N/C(=C2\C(=O)Nc3ccccc32)c2ccccc2)cc1 [Example 284, (Z)-3-{1-[4-(2-dimethylaminoethyloxy)-phenylamino]-1-phenyl-methylidene}-2-indolinone]
